According to the NIST ThermoML archive (doi:10.1021/je900757k):

Assay: isobaric coefficient of expansion
Conditions: Liquid, DSC

CCCCCCCCCCCC [dodecane]
isobaric coefficient of expansion
Conditions	278.15 K	288.15 K	298.15 K	308.15 K	318.15 K	328.15 K	338.15 K	348.15 K
5000 kPa	0.000913 1/K	0.000925 1/K	0.00094 1/K	0.000953 1/K	0.000964 1/K	0.000975 1/K	0.000989 1/K	0.000999 1/K
10000 kPa	0.000896 1/K	0.000902 1/K	0.000916 1/K	0.000924 1/K	0.000932 1/K	0.000941 1/K	0.00095 1/K	0.000958 1/K
15000 kPa	0.000874 1/K	0.000881 1/K	0.000893 1/K	0.000899 1/K	0.000908 1/K	0.000913 1/K	0.000918 1/K	0.000921 1/K
20000 kPa	0.000854 1/K	0.00086 1/K	0.000869 1/K	0.000874 1/K	0.000876 1/K	0.000884 1/K	0.000888 1/K	0.000891 1/K
25000 kPa	0.000838 1/K	0.000842 1/K	0.000848 1/K	0.00085 1/K	0.000851 1/K	0.000859 1/K	0.000863 1/K	0.000863 1/K
30000 kPa	0.000821 1/K	0.000826 1/K	0.000827 1/K	0.000831 1/K	0.000831 1/K	0.000835 1/K	0.000838 1/K	0.000837 1/K
35000 kPa	0.000805 1/K	0.000806 1/K	0.000807 1/K	0.00081 1/K	0.000809 1/K	0.000813 1/K	0.000815 1/K	0.000813 1/K
40000 kPa	0.000786 1/K	0.00079 1/K	0.000788 1/K	0.000792 1/K	0.000787 1/K	0.000791 1/K	0.000788 1/K	0.00079 1/K
45000 kPa	0.000772 1/K	0.000778 1/K	0.000775 1/K	0.000773 1/K	0.000768 1/K	0.000774 1/K	0.000773 1/K	0.00077 1/K
50000 kPa	0.00076 1/K	0.000761 1/K	0.00076 1/K	0.000755 1/K	0.000754 1/K	0.000757 1/K	0.000754 1/K	0.000753 1/K
55000 kPa	0.000751 1/K	0.000745 1/K	0.000744 1/K	0.000745 1/K	0.000739 1/K	0.000742 1/K	0.00074 1/K	0.000737 1/K
